Test results taken from US20130142879A1, “SUSPENSION FORMULATIONS” (INNOVATA BIOMED LIMITED, priority 2008, published 2013).

What was measured:
[1] = Solubility of drugs within HFA 227 with ethanol addition
[2] = Solubility of drugs within HFA 134a with ethanol addition
[3] = Solubility of suspension stabilisers in HFA 134a or HFA 227 with ethanol and additives; assay type: physicochemical
Method: Trehalose has been determined to be insoluble (observed to be <0.12 μg/50 μl) in HFA 134a or HFA 227 with up to 12% w/w ethanol and only slightly soluble in 30% w/w ethanol (3.3 μg/[…] in HFA 134a, 2.7 μg/50 μl in HFA 227).
Leucine has been determined to be insoluble (observed to be <0.08 μg/50 μl) in HFA 134a or HFA 227 with up to 30% w/w ethanol.

| SMILES | Solubility within HFA 227 ([1]; EtOH addition 0 % w/w) | Solubility within HFA 227 ([1]; EtOH addition 1 % w/w) | Solubility within HFA 227 ([1]; EtOH addition 5 % w/w) | Solubility within HFA 134a ([2]; EtOH addition 0 % w/w) | Solubility within HFA 134a ([2]; EtOH addition 1 % w/w) | Solubility within HFA 134a ([2]; EtOH addition 5 % w/w) | other results |
| --- | --- | --- | --- | --- | --- | --- | --- |
| CCCC1O[C@@H]2C[C@H]3[C@@H]4CCC5=CC(=O)C=C[C@]5(C)[C@H]4[C@@H](O)C[C@]3(C)[C@]2(C(=O)CO)O1 (some centres unmarked) [Budesonide] | 1.66 μg per 50 μl | 5.61 μg per 50 μl | 45.16 μg per 50 μl |  |  |  |  |
| CCC(=O)O[C@]1(C(=O)SCF)[C@H](C)C[C@H]2[C@@H]3C[C@H](F)C4=CC(=O)C=C[C@]4(C)[C@@]3(F)[C@@H](O)C[C@@]21C [Fluticasone Propionate] | 0.22 μg per 50 μl | 0.83 μg per 50 μl | 4.78 μg per 50 μl |  |  |  | Solubility within HFA 227 ([1]; EtOH addition 0.2 % w/w): 0.23 μg per 50 μl |
| COc1ccc(CC(C)NCC(O)c2ccc(O)c(NC=O)c2)cc1 (centres unmarked) [Formoterol] | 0.00 μg per 50 μl | 0.02 μg per 50 μl | 0.23 μg per 50 μl | 0.00 μg per 50 μl | 0.03 μg per 50 μl | 0.73 μg per 50 μl |  |
| CC(C)C[C@H](N)C(=O)O [Leucine] |  |  |  |  |  |  | Solubility ([3]; 3% w/w ethanol with 0.5% w/w propylene glycol or 0.01% w/w oleic acid, HFA 134a or HFA 227): < 0.08 μg/50 μl; Solubility ([3]; 12% w/w ethanol with 1.2% w/w water, HFA 134a or HFA 227): < 0.08 μg/50 μl; Solubility ([3]; HFA 134a or HFA 227 with up to 30% w/w ethanol): < 0.08 μg/50 μl |
| C[N+]1(C)[C@@H]2C[C@@H](OC(=O)C(O)(c3cccs3)c3cccs3)C[C@H]1[C@@H]1O[C@@H]12 [Tiotropium Bromide] | 0.00 μg per 50 μl | 0.00 μg per 50 μl | 0.07 μg per 50 μl | 0.00 μg per 50 μl | 0.01 μg per 50 μl | 0.33 μg per 50 μl |  |
| OC[C@H]1O[C@H](O[C@H]2O[C@H](CO)[C@@H](O)[C@H](O)[C@H]2O)[C@H](O)[C@@H](O)[C@@H]1O [Trehalose] |  |  |  |  |  |  | Solubility ([1]; 30% w/w ethanol in HFA 227): 2.7 μg/50 μl |
